Series [1] concerns AGS. Nature of the series: Antiproliferative activity against human AGS cells assessed as reduction in cell viability incubated for 72 hrs by CCK-8 assay. The class given is functional, cell-based. A general note: Tetrazolium assays rely on reduction of a dye to a coloured formazan, in cell work by metabolically active cells.
In series [2] the test system is MGC-803. Kind of series: Antiproliferative activity against human MGC-803 cells assessed as reduction in cell viability measured after 72 hrs by CCK-8 assay. The class given is functional, cell-based. Particulars: MGC-803, 72 h.
The target in series [3] is T1, Signal transducer and activator of transcription 3 (Homo sapiens, UniProt P40763). Nature of the series: Binding affinity to full length wild type STAT3-SH2 domain (unknown origin) assessed as association constant by SPR analysis.
T1 sequence (P40763 whole entry, the tested form may be a part): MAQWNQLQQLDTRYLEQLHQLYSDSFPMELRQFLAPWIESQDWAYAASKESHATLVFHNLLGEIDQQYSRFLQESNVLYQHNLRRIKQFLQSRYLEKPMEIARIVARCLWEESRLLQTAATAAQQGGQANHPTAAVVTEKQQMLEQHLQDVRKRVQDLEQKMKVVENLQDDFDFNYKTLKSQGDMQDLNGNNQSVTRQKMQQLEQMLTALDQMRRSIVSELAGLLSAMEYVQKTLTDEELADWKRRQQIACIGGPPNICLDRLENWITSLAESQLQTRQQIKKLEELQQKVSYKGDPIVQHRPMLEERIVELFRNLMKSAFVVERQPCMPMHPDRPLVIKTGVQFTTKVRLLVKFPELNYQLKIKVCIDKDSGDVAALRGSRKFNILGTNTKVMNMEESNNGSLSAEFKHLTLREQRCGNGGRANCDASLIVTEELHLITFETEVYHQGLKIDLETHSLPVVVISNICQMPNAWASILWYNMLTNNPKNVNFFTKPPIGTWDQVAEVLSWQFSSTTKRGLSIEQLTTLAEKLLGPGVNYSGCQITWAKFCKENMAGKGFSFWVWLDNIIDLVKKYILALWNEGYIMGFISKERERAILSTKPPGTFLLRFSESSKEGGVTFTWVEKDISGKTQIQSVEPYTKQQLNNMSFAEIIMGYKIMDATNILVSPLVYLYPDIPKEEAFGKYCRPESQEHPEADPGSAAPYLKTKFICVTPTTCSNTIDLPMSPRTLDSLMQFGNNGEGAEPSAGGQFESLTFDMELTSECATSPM
The target in series [4] is T1, Signal transducer and activator of transcription 3. Kind of series: Binding affinity to full length wild type STAT3-SH2 domain (unknown origin) in human MGC-803 cells assessed as thermal stabilization of protein at 37 to 53 degreeC at 5 uM incubated for 3 hrs by cellular thermal shift assay. The class given is cell-based.
The target is the same in series [5]. Nature of the series: Inhibition of STAT3 transcriptional activity transfected in HEK293T cells at 3 to 5 uM incubated for 24 hrs by dual-ludferase reporter gene assay. The class given is cell-based. Particulars: dose 3-5 µM. In general terms: A reporter such as luciferase makes a cellular process visible.
Series [6] can be described thus: Antiproliferative activity against […] H9c2 cells assessed as reduction in cell viability incubated for 72 hrs by CCK-8 assay. The class given is toxicity, cell-based. Particulars: rat.
Series [7] deals with AGS. Kind of series: Induction of apoptosis in human AGS cells at 3 uM incubated for 72 hrs by V-FITC/PI staining based flow cytometry assay. The class given is functional. Background: A flow cytometer gives signals particle by particle.
For series [8], the system named is MGC-803. Kind of series: Induction of apoptosis in human MGC-803 cells at 5 uM incubated for 72 hrs by V-FITC/PI staining based flow cytometry assay. The class given is functional.
The test system of series [9] is MGC-803. Nature of the series: Antitumor activity against human MGC-803 cells xenografted in BALB/c nude mouse assessed as tumor growth inhibition at 15 mg/kg, ip measured every day for 20 days. Particulars: time 20 day. Set-up: scale not given: the % may be the effect or the level left. It counts as functional.
Series [10] can be described thus: Toxicity in BALB/c nude mouse xenografted with MGC-803 cells assessed as effect on body weight at 15 mg/kg, ip measured every day for 20 days. The class given is organism-based. Conditions: in vivo, 480 h, time 20 day.
Series [11] can be described thus: Toxicity in BALB/c nude mouse xenografted with MGC-803 cells assessed as effect on body weight at 5 mg/kg, ip measured every day for 20 days. The class given is organism-based. Conditions: in vivo, 480 h, time 20 day.
Series [12] relates to MGC-803. Nature of the series: Antiproliferative activity against human MGC-803 cells assessed as reduction in cell viability pretreated for 12 hrs followed by compound washout and measured after 24 hrs. The class given is functional, cell-based.

pIC50: −log10 of the molar value. Activity calls are given as the source filed them. The calls are words filed in the database; no cut-off is given here.

Usually pIC50 stands for the negative decadic logarithm of the IC50, by convention in mol/L. Regarding `C[C@H](C(=O)N(Cc1ccc(C2CCCCC2)cc1)c1ccc(B(O)O)cc1)N(C)S(=O)(=O)c1c(F)c(F)c(F)c(F)c1F`, the pIC50 is 5.76 with AGS [1] and 5.50 with MGC-803 [2].
A word on the IC50: it is the concentration that gives 50% inhibition. For `CN(CC(=O)N(Cc1ccc(C2CCCCC2)cc1)c1ccc(C(=O)O)cc1)S(=O)(=O)c1c(F)c(F)c(F)c(F)c1F`, the negative logarithm of the IC50 (pIC50) in the series with AGS [1] was 5.27; in the series on MGC-803 [2], 5.07. Moreover, the Ka in series [3] was 3.02 10^3/M/s. The outcome (in series [4]; with MGC-803 [12]) was Active. Further, the inhibition result in series [5] is “Active”. Besides, the IC50 at 72 h in series [6] worked out at 10.2 µM. The Activity with AGS [7] is on record as 16.2%; in the series on MGC-803 [8], 5.7%; in the series with MGC-803 [9], 49.05%; in [10], “Non-Toxic”; in series [11], “Non-Toxic”.

(Values after ChEMBL document CHEMBL5214948, “Boronic Acid: A Novel Pharmacophore Targeting Src Homology 2 (SH2) Domain of STAT3” (J Med Chem, 2022).)
